In US20250381157A1, “ANTIMICROBIAL COMPOUNDS” (priority 2022, published 2025):
Read-outs that look alike come from different tables or passages of the source.

How the values were obtained:
[1] = Plasma stability Mouse; format: in vitro ADME
[2] = Plasma stability Rat; format: in vitro ADME
[3] = Rat pharmacokinetics (IV, PO); format: in vivo
[4] = target: T1, recombinant human HDAC5 (Homo sapiens, UniProt Q9UQL6); assay: HDAC5 in-vitro enzymatic assay; format: biochemical
T1 construct: purchased BPS 50005
Method: (§1) All of the compounds were dissolved in DMSO. A series of dilutions of the compounds were prepared with 10% DMSO in HDAC assay buffer and 5 μl of the dilution was added to a 50 μl reaction so that the final concentration of DMSO was 1% in all of reactions. The compounds were pre-incubated in duplicate at RT for 30 minutes in a mixture containing HDAC assay buffer, 5 μg BSA, HDAC enzyme and a test compound. After 30 minutes, the enzymatic reactions were initiated by the addition of HDAC substrate to a final concentration of 20 μM or 2 μM. The enzymatic reaction proceeded for 30 minutes at 37° C. After enzymatic reactions, 50 μl of 2×HDAC Developer was added to each well for the HDAC enzymes and the plate was incubated at room temperature for an additional 15 minutes. Fluorescence intensity was measured at an excitation of 360 nm and an emission of 460 nm using a Tecan Infinite M1000 microplate reader.
(§2) HDAC activity assays were performed in duplicates at each concentration. The fluorescent intensity data were analyzed using the computer software, Graphpad Prism. […] The percent activity in the presence of each compound was calculated according to the following equation: % activity=(F−Fb)/(Ft−Fb), where F=the fluorescent intensity in the presence of the compound. […] The IC50 value was determined by the concentration causing a half-maximal percent activity.

[5] = system: E. coli; assay: E. coli mouse infection model; format: in vivo; conditions: for translocation of bacteria to liver and spleen: oral, CFU in liver
Method: FIG. 1: E. coli mouse infection model. CFU measured in tissue: colon, ileum, liver, spleen. Statistical analysis was performed by comparing all conditions to the vehicle-treated group and using one-way ANOVA with Dunnett post-hoc test, *** p<0.001, **** p<0.0001, ns non-significant.
Compound 1 was administered orally to a mouse model of E. coli infection at 25 mg/kg, 73.5 mk/kg and 50 mg/kg. Compound 1 achieved the study goal of lowering Colony Unit Forming count in colon tissue by a factor of 3 log10 compared to vehicle treated animals.
• Infecting mice through oral administration of a vancomycin resistant pathogenic strain of E. coli simplified the process of determining the mechanism(s) by which compound 1 exerts its effects on the pathogenic process. […] This is evidenced by the fact that there still are viable vancomycin resistant E. coli present in the colon and ileum at the conclusion of the experiment (FIG. 1). […] It is therefore unlikely that compound 1 is inhibiting E. coli translocation to these organs solely due to its ability to stimulate production of antibacterial peptides. […] That experiment was performed in the presence of cyclophosphamide, which is known to cause febrile neutropenia due to translocation of bacteria to vital organs. […] First is the ability of the compound 1 to attenuate the growth of bacteria and secondly is its ability to inhibit the bacterial translocation.

[6] = target: T2, recombinant human HDAC9 (Homo sapiens, UniProt Q9UKV0); assay: HDAC9 in-vitro enzymatic assay; format: biochemical
T2 construct: purchased BPS 50009
Method: as §1, §2

[7] = system: bacteria in culture; assay: in vitro toxicity to bacteria in culture; format: cell-based
[8] = system: Caco-2 cells; assay: Caco-2 cell study (permeability, efflux); format: in vitro ADME
Excerpt: Caco-2 cells are used as a model of the intestinal epithelial barrier.

[9] = target: T3, recombinant human HDAC3 (Homo sapiens, UniProt O15379); assay: HDAC3 in-vitro enzymatic assay; format: biochemical
T3 construct: purchased BPS 50003
Method: as §1, §2

T1 sequence (Q9UQL6 whole entry): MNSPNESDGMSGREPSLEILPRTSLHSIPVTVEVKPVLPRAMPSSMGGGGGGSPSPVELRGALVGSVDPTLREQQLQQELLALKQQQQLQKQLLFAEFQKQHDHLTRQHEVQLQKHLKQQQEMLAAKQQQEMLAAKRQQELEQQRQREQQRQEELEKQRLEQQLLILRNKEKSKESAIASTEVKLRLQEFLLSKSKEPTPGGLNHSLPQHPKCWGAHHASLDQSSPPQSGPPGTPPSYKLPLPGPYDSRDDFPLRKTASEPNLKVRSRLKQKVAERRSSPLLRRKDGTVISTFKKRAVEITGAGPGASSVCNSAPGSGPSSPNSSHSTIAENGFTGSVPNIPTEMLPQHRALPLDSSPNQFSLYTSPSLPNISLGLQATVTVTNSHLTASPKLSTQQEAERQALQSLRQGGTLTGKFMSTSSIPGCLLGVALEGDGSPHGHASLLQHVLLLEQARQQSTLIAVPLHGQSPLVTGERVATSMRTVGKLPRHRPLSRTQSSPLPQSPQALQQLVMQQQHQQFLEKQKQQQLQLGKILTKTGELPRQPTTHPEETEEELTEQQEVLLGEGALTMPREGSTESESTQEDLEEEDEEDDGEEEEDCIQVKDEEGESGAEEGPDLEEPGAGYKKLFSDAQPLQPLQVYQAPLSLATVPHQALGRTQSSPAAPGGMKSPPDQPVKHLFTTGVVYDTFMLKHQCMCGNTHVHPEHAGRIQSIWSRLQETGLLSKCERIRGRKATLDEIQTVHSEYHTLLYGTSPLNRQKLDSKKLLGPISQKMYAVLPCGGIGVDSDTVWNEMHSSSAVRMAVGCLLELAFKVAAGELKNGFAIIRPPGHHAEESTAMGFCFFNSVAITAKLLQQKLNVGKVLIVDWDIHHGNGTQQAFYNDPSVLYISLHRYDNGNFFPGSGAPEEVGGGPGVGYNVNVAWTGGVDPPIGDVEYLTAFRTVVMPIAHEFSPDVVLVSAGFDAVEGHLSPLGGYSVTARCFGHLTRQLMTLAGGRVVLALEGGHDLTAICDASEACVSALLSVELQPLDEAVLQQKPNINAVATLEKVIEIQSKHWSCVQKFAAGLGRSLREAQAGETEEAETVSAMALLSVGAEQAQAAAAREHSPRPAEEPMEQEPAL
T2 sequence (Q9UKV0 whole entry): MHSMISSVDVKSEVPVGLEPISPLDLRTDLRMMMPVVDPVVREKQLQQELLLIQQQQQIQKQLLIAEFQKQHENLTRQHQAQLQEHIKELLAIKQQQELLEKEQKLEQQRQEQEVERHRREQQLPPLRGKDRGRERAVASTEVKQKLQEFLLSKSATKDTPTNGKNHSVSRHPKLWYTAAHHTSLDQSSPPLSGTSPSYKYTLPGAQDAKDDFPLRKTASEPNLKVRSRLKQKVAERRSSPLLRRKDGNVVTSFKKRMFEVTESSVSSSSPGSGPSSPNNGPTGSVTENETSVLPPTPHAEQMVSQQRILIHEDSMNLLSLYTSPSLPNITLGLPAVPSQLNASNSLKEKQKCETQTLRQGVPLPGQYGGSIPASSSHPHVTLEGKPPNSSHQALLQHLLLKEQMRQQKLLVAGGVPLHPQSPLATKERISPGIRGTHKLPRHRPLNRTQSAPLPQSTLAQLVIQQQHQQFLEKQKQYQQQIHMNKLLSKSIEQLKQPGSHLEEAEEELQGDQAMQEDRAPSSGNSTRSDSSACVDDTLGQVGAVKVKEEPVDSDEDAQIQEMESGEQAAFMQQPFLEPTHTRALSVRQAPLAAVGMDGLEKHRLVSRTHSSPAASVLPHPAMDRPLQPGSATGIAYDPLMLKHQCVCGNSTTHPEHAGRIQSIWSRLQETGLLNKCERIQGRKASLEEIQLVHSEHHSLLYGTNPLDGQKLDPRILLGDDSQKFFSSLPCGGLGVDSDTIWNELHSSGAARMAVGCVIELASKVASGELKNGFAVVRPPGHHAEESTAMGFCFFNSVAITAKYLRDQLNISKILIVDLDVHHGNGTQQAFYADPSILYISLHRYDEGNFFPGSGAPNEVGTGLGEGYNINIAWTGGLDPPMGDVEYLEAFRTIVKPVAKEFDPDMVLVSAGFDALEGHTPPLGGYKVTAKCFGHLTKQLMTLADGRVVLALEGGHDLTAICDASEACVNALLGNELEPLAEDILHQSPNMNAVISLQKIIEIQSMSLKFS
T3 sequence (O15379 whole entry): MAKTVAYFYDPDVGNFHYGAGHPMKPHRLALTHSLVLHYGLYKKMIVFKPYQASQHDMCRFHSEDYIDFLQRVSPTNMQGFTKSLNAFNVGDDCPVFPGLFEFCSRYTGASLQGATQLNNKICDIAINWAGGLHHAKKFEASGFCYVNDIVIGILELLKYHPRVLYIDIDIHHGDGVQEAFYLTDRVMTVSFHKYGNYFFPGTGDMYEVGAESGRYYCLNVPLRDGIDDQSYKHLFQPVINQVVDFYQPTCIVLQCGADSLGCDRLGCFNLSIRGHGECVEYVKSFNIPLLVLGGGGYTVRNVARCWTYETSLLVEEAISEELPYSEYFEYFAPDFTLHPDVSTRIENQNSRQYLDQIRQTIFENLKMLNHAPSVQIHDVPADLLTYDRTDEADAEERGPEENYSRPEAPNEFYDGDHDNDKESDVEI
T3 sequence (Q9Y618 395-489 partner limits assumed): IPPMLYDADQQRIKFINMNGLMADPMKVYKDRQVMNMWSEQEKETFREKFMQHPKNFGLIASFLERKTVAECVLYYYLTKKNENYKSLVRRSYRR

SMILES: C#CCOCC(=O)Nc1ccc(C(=O)Nc2ccccc2N)cc1 [Compound 1, N-(2-aminophenyl)-4-{2-[(prop-2-yn-1-yl)oxy]acetamido}benzamide]
- Plasma stability Mouse [1]: Low
- Plasma stability Rat [2]: High
- C_max IV - rat ([3]; IV): 177 µM
- V-d IV - rat ([3]; IV): 0.565 L/kg
- C_max PO - rat ([3]; PO): 3.3 µM
- half-life ([3]; in vivo, PO, read-out: Elimination T½ (min) PO - rat): 34 min
- half-life ([3]; in vivo, intravenous, PIV, read-out: Elimination T½ (min) PIV - rat): 66 min
- bioavailability ([3]; in vivo, oral): 1%
- IC50 [4]: > 200 µM
- Inhib. HDAC5 ([4]; @ 200 μM): No Inhib. @ 200 μM
- dose dependence of attenuation of E. coli growth in the colon and ileum ([5]; FIG. 1): shows dose dependence
- dose dependence of inhibition of vancomycin resistant E. coli translocation to the liver and spleen ([5]; FIG. 1): not compound 1 dose dependent
- lowering Colony Unit Forming count in colon tissue compared to vehicle treated animals ([5]; administered orally at 25 mg/kg, 73.5 mk/kg and 50 mg/kg): 3 log10
- E. coli burden in the intestines reduced compared to control ([5]; colon and ileum, conclusion of the experiment): ~3 logs
- translocation of bacteria to liver and spleen [5]: completely knocking out translocation
- translocation of bacteria to liver and spleen ([5]; listed as compound 1): totally inhibiting its translocation
- IC50 [6]: > 200 µM
- Inhib. HDAC9 ([6]; @ 200 μM): No Inhib. @ 200 μM
- toxicity to bacteria in culture [7]: not toxic
- Caco-2 Permeability A-B dir. [8]: High
- Caco-2 Permeability A-B dir. ([8]; listed as compound 1): high
- Active efflux ([8]; Caco-2): No
- IC50 [9]: ≤ 1 µM
- inhibition at 1 µM ([9]; @ 1 μM, read-out: Inhib. HDAC3): 61%
